Reference: patent publication EP3826985B1, “DENDRIMER-TYPE COMPOUNDS, METHODS FOR PRODUCING SAME, AND USES THEREOF” (Université De Reims Champagne-Ardenne, priority 2018, dated 2020)

Experiment: Metal cation trapping by dendrimer (dialysis, ICP-AES)
Experimental: Une solution aqueuse contenant l'ion métallique (6 mL, Cf = 4.10^-5 mol/L) a été mélangée avec une solution aqueuse de II.6 (6 mL; 2.10^-6 mol/L); la solution résultante a été agitée pendant 2h à une vitesse d'agitation de 300 tours/min à température ambiante.
Une dialyse d'une heure a été réalisée en utilisant une membrane d'ester de cellulose (Cutoff 1000) dans de l'eau distillée (1L). Pour déterminer la quantité d'ion métallique extraite par le dendrimère, 10 mL de l'eau de dialyse ont été prélevés pour l'analyse ICP-AES (Spectrométrie à plasma à couplage inductif - Spectrométrie d'Emission Atomique).
L'analyse de l'eau de dialyse par ICP-AES (Thermo Scientific, iCAP 6000 Séries) a permis d'obtenir la quantité de métal résiduelle. La quantité d'ions (M^n+) présente dans la phase dendrimère a été obtenue par différence entre la quantité initiale et la quantité résiduelle.
Le pourcentage de rétention (% R) a été calculé selon l'expression suivante : %R = (n(Maq(initial))−n(Maq(final)))/(n Maq(initial)) × 100 [formula] avec n (Maq(initial)) et n (Maq(final)), les nombres de moles d'ions métalliques respectivement dans la solution de départ et dans l'eau de dialyse après extraction.

With `OCC(O)COCC(COCC(COCC(COCC(COCC(COCC(O)CO)OCC(O)CO)OCC(COCC(O)CO)OCC(O)CO)OCC(COCC(COCC(O)CO)OCC(O)CO)OCC(COCC(O)CO)OCC(O)CO)OCC(COCC(O)CO)OCC(O)CO)OCC(O)CO` (stereo not shown) [II.6] the “% R” value (Ag^+, Rapport n (Maq (initial)) / n (II.6) = 104,5) was 88%, the “% R” value (Cd^2+, Rapport n (Maq (initial)) / n (II.6) = 73) was 95,5% and the “% R” value (Ce^3+, Rapport n (Maq (initial)) / n (II.6) = 93) was greater than 95%. For the same molecule, the “% R” value (Cu^2+, Rapport n (Maq (initial)) / n (II.6) = 63,6) was 75%, the “% R” value (Hg^2+, Rapport n (Maq (initial)) / n (II.6) = 140) was 85% and the “% R” value (Ni^2+, Rapport n (Maq (initial)) / n (II.6) = 85,5) was 89%. The “% R” value (Pb^2+, Rapport n (Maq (initial)) / n (II.6) = 77) was 99%.
